Reference: publication PMC8521618 (ACS Medicinal Chemistry Letters, 2021)

Experiment: Pharmacokinetics in mice
Settings: for Vd: Vss, PK parameters (mouse)
[1] = CD1, mouse, in vivo, iv, 1 mg/kg, Table 3

Row | estimated Fa (mouse, 50 mpk) | SMILES | Vd [1] [L/kg] | half-life (CD1, mouse, in vivo, iv, 1 mg/kg, terminal t1/2, PK parameters (mouse), Table 3) [h] | fraction absorbed (mouse, 10 mpk, 0.5% CMC/0.1% Tween80) | estimated Fa (mouse, 30 mpk)
1 | <0.01 (50 mpk) | CC(=O)N(C)C1CCN(c2cc(F)cc(NC(=O)c3cc4c(F)ccc(C)c4[nH]3)c2)C1 (stereo not drawn) [Compound 25, 4-fluoro-N-[3-fluoro-5-[3-(N-methylacetamido)pyrrolidin-1-yl]phenyl]-7-methyl-1H-indole-2-carboxamide] | 1.04 |  |  | 
2 |  | Cc1ccc(F)c2cc(C(=O)N[C@@H]3CCC[C@H](N4CC[C@H](N(C)S(C)(=O)=O)C4)C3)[nH]c12 [Compound 32] | 8.13 | 3.13 | 0.6 | 0.7 (30 mpk)
